Three molecules from paper PMC9812224, “Analysis of the conformational heterogeneity of the Rieske iron–sulfur protein in complex III2 by cryo-EM” (IUCrJ, 2023) can be followed below.

The target of the experiment is T1, CIII2 (respiratory complex III dimer, cytochrome bc1 complex) (Yarrowia lipolytica, UniProt Q9B6D0).
T1 construct: gene COB; native homodimeric complex from DDM-solubilized mitochondrial membranes after depletion of His-tagged complex I; untagged; ion exchange and size exclusion; with Cytochrome c1, heme protein, mitochondrial; Cytochrome b-c1 complex subunit 1, mitochondrial; Cytochrome b-c1 complex subunit 2, mitochondrial; Cytochrome b-c1 complex subunit 6; Cytochrome b-c1 complex subunit 7; Cytochrome b-c1 complex subunit 8; Cytochrome b-c1 complex subunit 9; Cytochrome b-c1 complex subunit 10
T1 sequence (Q9B6D0 1-385): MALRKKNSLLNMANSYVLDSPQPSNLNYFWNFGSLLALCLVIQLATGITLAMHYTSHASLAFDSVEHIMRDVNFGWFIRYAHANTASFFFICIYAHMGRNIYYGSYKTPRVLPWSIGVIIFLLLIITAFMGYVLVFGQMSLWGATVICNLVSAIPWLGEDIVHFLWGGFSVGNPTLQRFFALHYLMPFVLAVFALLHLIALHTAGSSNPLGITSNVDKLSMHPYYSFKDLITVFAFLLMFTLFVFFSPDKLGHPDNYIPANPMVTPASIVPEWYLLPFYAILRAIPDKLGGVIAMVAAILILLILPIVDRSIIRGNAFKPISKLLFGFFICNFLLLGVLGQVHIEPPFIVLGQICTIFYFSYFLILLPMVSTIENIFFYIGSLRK
In words: cryo-EM structure. Format: binding. The conditions noted are these: pH 8.0.

As to `O=C1C(O)=C([C@H]2CC[C@H](c3ccc(Cl)cc3)CC2)C(=O)c2ccccc21` [atovaquone], for the setting “Qo site (cyt b; hydrogen bond to His190 of Rip1), with antimycin A, 120 µM”, the cryo-EM structure result was “Atovaquone was resolved in the Qo site in the +atovaquone+antimycin A sample”.

As for `CCCCCCCCCCc1c(C)c(O)c(OC)c(OC)c1O` [decylubiquinol], the cryo-EM structure result (Qi site (cyt b only), 1 mM, substrate analogue) is given as “After its addition, decylubiquinol was resolved in the Qi site”.

In the case of `CCCCCCCCCCC1=C(C)C(=O)C(OC)=C(OC)C1=O` [decylubiquinone], the cryo-EM structure result (Qo site, possible low occupancy, 330 µM with 25 mM sodium ascorbate, quinone analogue) was “density in the Qo site increased, indicating a possible low occupancy of DQ”.
